Data from patent US11485701B2, “Insect repellent compounds and compositions, and methods thereof” (Iowa State University Research Foundation, Inc., priority 2016, dated 2022).

What was measured:
Format in all cases: in vivo
[1] = system: Northern house mosquitoes (Culex pipiens); assay: Long-term spatial repellency, static air repellency chamber, filter papers air-dried 5 hours; conditions: Culex pipiens, 1 mL of 0.5% solution in acetone, air-dried 5 hours
Description: (§1) Northern house mosquitoes (Culex pipiens), a primary carrier of West Nile virus in eastern North America, were obtained from an established colony in the Medical Entomology Laboratory in the Department of Entomology at Iowa State University of Science and Technology, Ames Iowa. Mosquito rearing was performed by established protocols that are maintained by the Medical Entomology Laboratory. Repellency bioassays were performed with adult female mosquitoes that were 5-7 days post-emergent. […] Mosquitoes, prior to testing, were held at 27° C., 80% relative humidity, and on a 16:8 hr light:dark photoperiod.
Repellency bioassays were performed using a static air repellency chamber, which has been described in various publications by the Pesticide Toxicology Laboratory at Iowa State University of Science and Technology, Ames, Iowa Briefly, a 9-cm×60-cm glass tube was used to monitor the distribution of mosquitoes at 15 min, 30 min, 60 min, 90 min, 120 min, and 150 min after introducing mosquitoes into the static air repellency chamber. Treated filter papers were treated with 1 mL of 0.5% solution in acetone of the terpenoid analogs created in the lab and were exposed to ambient air for 5 hours before they were introduced into the spatial chamber for testing. This is a slight modification of the method described in Example 2, so as to evaluate the residual repellent character of these compounds on a treated surface after 5 hours. One end of the spatial chamber contained a treated filter paper, whereas the other (untreated) end of the spatial chamber was not treated with compound. Controls contained filter papers treated with acetone, the solvent used to make the 0.5% solutions. Each end of the repellency chamber was secured with a 100-mm Petri dish using celluloid tape. After securing the petri dishes with corresponding treated or untreated filter papers to the spatial chamber, mosquitoes were anesthetized with carbon dioxide, and approximately 20 female mosquitoes were placed into each repellency chamber for one replicate. The opening of the spatial repellency chamber was secured with celluloid tape to prevent their escape. Chambers were oriented in opposite directions from the previous replicate to account for any directional effect. Four replicates were performed for data analysis for both the control and treatment groups.
Data for spatial repellency, the percentage repellency, is reported at each of the respective time points in the figures and tables mentioned below in this disclosure. The percentage spatial repellency is the examination of the distribution of mosquitoes and is calculated using the following equation: […]

[2] = system: Northern house mosquitoes (Culex pipiens); assay: Short-term spatial repellency, static air repellency chamber; conditions: for pest or weed control at 0.5 %: Culex pipiens, filter paper, 1 mL of 0.5% solution in acetone, air-dried 15 min
How it was run: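 Adult females 5-7 days post-emergence, ~20 per chamber, exposed in a 9×60 cm glass tube to filter paper treated with compound in acetone, the other end untreated. Distribution scored at 15-150 min as % spatial repellency; acetone controls, four replicates.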

[3] = system: Northern house mosquitoes (Culex pipiens); assay: Contact irritancy assay (percent escape from treated chamber); conditions: organza netting treated with 0.5% solution; 10 min; FIG. 14
Description: as §1
Organza were cut to approximately 11.5 cm×8 cm to wrap around the inside of the contact irritancy chamber. This piece of organza was treated with 1.5 mL of 0.5% or 0.05% solution of test compound in acetone. This organza was allowed to air-dry for 15 minutes before introducing them into the chamber. Organza sheets were draped around the inside wall of the metallic chamber and fastened to the walls of the chamber with small magnets. […] After ten minutes, the butterfly valve was once again closed and the number of mosquitoes was counted in the clear “counting” chamber. […]

[4] = 0.25 h, 15 min, read-out: Long-term Percentage repellency 15 min
[5] = 1.5 h, 90 min, read-out: Long-term Percentage repellency 90 min
[6] = 2.5 h, 150 min, read-out: Long-term Percentage repellency 150 min
[7] = 0.25 h, 15 min after introduction, read-out: Short-term Percentage repellency 15 min
[8] = 1.5 h, 90 min, read-out: Short-term Percentage repellency 90 min
[9] = 2.5 h, 150 min, read-out: Short-term Percentage repellency 150 min

| Structure (SMILES) | pest or weed control at 0.5 % [1, 4] [%] | pest or weed control at 0.5 % [1, 5] [%] | pest or weed control at 0.5 % [1, 6] [%] | pest or weed control at 0.5 % [2, 7] [%] | pest or weed control at 0.5 % [2, 8] [%] | pest or weed control at 0.5 % [2, 9] [%] | Short-term repellency at low concentration, in words ([2]; filter paper treated with 0.1%, FIG. 6) | Contact irritancy, percentage escape [3] |
| --- | --- | --- | --- | --- | --- | --- | --- | --- |
| CC(C)=CCCC(C)CCOC(=O)C1CC1 (stereo not drawn) [Compound 1035A, citronellyl cyclopropanecarboxylate] | 70 | 80 | 62.5 | 22.5 | 92.5 | 90 | significant levels of repellency | 80% |
| CC1CCC(C(C)(C)O)C(O)C1 (stereo not drawn) [p-menthane-3,8-diol, reference compound] | 7.5 | 5 | 5 | 12.5 | 12.5 | 20 | – | approximately 65% |
